The values below come from patent publication US20240109930A1, “TRIAZOLYL-METHYL SUBSTITUTED ALPHA-D-GALACTOPYRANOSIDE DERIVATIVES” (Idorsia Pharmaceuticals Ltd, priority 2021, published 2024).

In test [1] the target is human Gal-3 (hGal-3) (Homo sapiens (Human), UniProt P17931). Nature of the test: Competitive binding assay: biotinylated hGal-3 binding to microplate-adsorbed asialofetuin (ASF). As to conditions: IC50 values from several measurements given as geomean. The protocol: (§1) The inhibitory activity of compounds is determined in competitive binding assays. This spectrophotometric assay measures the binding of biotinylated human Gal-3 (hGal-3) or human Gal-1 (hGal-1), respectively, to a microplate-adsorbed glycoprotein, asialofetuin (ASF) (Proc Natl Acad Sci USA. 2013 Mar. 26; 110(13):5052-7.). Alternatively, and preferably, a human Gal-1 version in which all six cysteines are substituted by serines may be used.
Chain of human Gal-3 (hGal-3) (P17931 whole entry): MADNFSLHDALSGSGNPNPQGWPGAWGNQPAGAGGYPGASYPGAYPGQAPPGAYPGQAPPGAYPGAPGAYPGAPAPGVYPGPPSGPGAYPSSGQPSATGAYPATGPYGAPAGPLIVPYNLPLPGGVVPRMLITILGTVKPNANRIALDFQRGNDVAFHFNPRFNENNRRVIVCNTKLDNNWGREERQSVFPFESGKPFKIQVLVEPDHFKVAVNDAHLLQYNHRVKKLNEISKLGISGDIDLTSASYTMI
(§2) Briefly, compounds are serially diluted in DMSO (working dilutions). ASF-coated 384well plates are supplemented with 22.8 μL/well of biotinylated hGal-3 or hGal-1 in assay buffer (i.e. 300-1000 ng/mL biotinylated hGal-3 or hGal-1) to which 1.2 μL of compound working dilutions are added and mixed.
(§3) Plates are incubated for 3 hours at 4° C., then washed with cold assay buffer (3×50 uL), incubated for 1 hour with 25 μL/well of a streptavidin-peroxidase solution (diluted in assay buffer to 80 ng/mL) at 4° C., followed by further washing steps with assay buffer (3×50 uL). Finally, 25 μL/well of ABTS substrate is added.
(§4) The calculated IC50 values may fluctuate depending on the daily assay performance. Fluctuations of this kind are known to those skilled in the art. IC50 values from several measurements are given as geomean values.

In test [2] the target is human Gal-1 (hGal-1) (Homo sapiens, UniProt P09382, C131S/C17S/C43S/C61S/C89S). The test can be described thus: Competitive binding assay: biotinylated hGal-1 binding to microplate-adsorbed asialofetuin (ASF). As to conditions: IC50 values from several measurements given as geomean. How it is done:
as §1, §2, §3, §4

A word on the IC50: it is the point on the concentration scale where inhibition reaches its midpoint. A low value points to higher potency.

Each structure is given as a SMILES string.

Turning to `CO[C@@H]1[C@@H](n2cc(-c3ccc(Br)c(F)c3F)nn2)[C@@H](O)[C@@H](CO)O[C@@H]1Cc1cn(C2(C(F)(F)F)COC2)nn1` [Ex 4.1.58.], the values for the IC50 in test [1] and in test [2] were 20 nM and 1070 nM, respectively.

`CO[C@@H]1[C@@H](n2cc(-c3ccc(Cl)c(F)c3F)nn2)[C@@H](O)[C@@H](CO)O[C@@H]1Cn1cc(C2(O)CCC2)nn1` [Ex 2.2.31.]: the half-inhibitory concentration (IC50) in test [1] stood at 90 nM; in test [2] it was 2630 nM.

As to `CO[C@@H]1[C@@H](n2cc(-c3ccc(Br)c(F)c3F)nn2)[C@@H](O)[C@@H](CO)O[C@@H]1Cc1cn([C@@H]2CCCC2(F)F)nn1` [Example 4.1.64.A, (2R,3R,4S,5R,6R)-4-(4-(4-bromo-2,3-difluorophenyl)-1H-1,2,3-triazol-1-yl)-6-((1-((R)-2,2-difluorocyclopentyl)-1H-1,2,3-triazol-4-yl)methyl)-2-(hydroxymethyl)-5-methoxytetrahydro-2H-pyran-3-ol], the IC50 in test [1] amounted to 30 nM; in test [2], 1740 nM.

Take `CO[C@@H]1[C@@H](n2cc(-c3ccc(Br)c(F)c3F)nn2)[C@@H](O)[C@@H](CO)O[C@@H]1Cc1cn(C2(C)COC2)nn1` [Ex 4.1.6.]: the results for the IC50 in test [1] and in test [2] were 40 nM and 1460 nM, respectively.

`CO[C@@H]1[C@@H](n2cc(-c3ccc(Cl)c(F)c3F)nn2)[C@@H](O)[C@@H](CO)O[C@@H]1Cc1cn(C2CC3(COC3)C2)nn1` [Ex 2.1.16.]: the half-maximal inhibitory concentration (IC50) in test [1] stood at 90 nM; in test [2] it was 5930 nM.

Take `CO[C@@H]1[C@@H](n2cc(-c3ccc(F)c(F)c3F)nn2)[C@@H](O)[C@@H](CO)O[C@@H]1Cc1cn(C23CC(F)(C2)C3)nn1` [Ex 3.1.25.]: the 50% inhibitory concentration (IC50) stood at 40 nM in test [1] and 1550 nM in test [2].

With `CO[C@@H]1[C@@H](n2cc(-c3ccc(C)c(F)c3F)nn2)[C@@H](O)[C@@H](CO)O[C@@H]1Cc1cn(C2(C)CC(F)(F)C2)nn1` [Ex 1.1.15.], the half-inhibitory concentration (IC50) in test [1] is 30 nM; in test [2], 1760 nM.

Consider `CO[C@@H]1[C@@H](n2cc(-c3ccc(Cl)c(F)c3F)nn2)[C@@H](O)[C@@H](CO)O[C@@H]1Cc1cn(C2COCC2(F)F)nn1` (mixture of isomers) [Example 2.1.90.B], for which the IC50 in test [1] came out at 20 nM; in test [2] it was 910 nM.

In the case of `CO[C@@H]1[C@@H](n2cc(-c3ccc(Cl)c(F)c3F)nn2)[C@@H](O)[C@@H](CO)O[C@@H]1Cn1cc(C2(C(F)(F)F)CC2)nn1` [Ex 2.2.54.], the IC50 in test [1] amounted to 70 nM; in test [2], 2460 nM.

For `CO[C@@H]1[C@@H](n2cc(-c3ccc(Cl)c(F)c3F)nn2)[C@@H](O)[C@@H](CO)O[C@@H]1Cc1cn(C2(C(F)F)CC2)nn1` [Ex 2.1.51., (2R,3R,4S,5R,6R)-4-(4-(4-chloro-2,3-difluorophenyl)-1H-1,2,3-triazol-1-yl)-6-((1-(1-(difluoromethyl)cyclopropyl)-1H-1,2,3-triazol-4-yl)methyl)-2-(hydroxymethyl)-5-methoxytetrahydro-2H-pyran-3-ol], the values for the 50% inhibitory concentration (IC50) in test [1] and in test [2] were 20 nM and 830 nM, respectively.

Turning to `CO[C@@H]1[C@@H](n2cc(-c3ccc(Cl)c(F)c3F)nn2)[C@@H](O)[C@@H](CO)O[C@@H]1Cc1cn([C@@H]2COC[C@@H]2F)nn1` (single isomer, unassigned) [Example 2.1.74.B, (2R,3R,4S,5R,6R)-4-(4-(4-chloro-2,3-difluorophenyl)-1H-1,2,3-triazol-1-yl)-6-((1-((3R*,4R*)-4-fluorotetrahydrofuran-3-yl)-1H-1,2,3-triazol-4-yl)methyl)-2-(hydroxymethyl)-5-methoxytetrahydro-2H-pyran-3-ol], the IC50 was 40 nM in test [1] and 1620 nM in test [2].

As for `CO[C@@H]1[C@@H](n2cc(-c3ccc(F)c(F)c3F)nn2)[C@@H](O)[C@@H](CO)O[C@@H]1Cc1cn(C2(C(F)(F)F)CCC2)nn1` [Ex 3.1.55., (2R,3R,4S,5R,6R)-2-(hydroxymethyl)-5-methoxy-6-((1-(1-(trifluoromethyl)cyclobutyl)-1H-1,2,3-triazol-4-yl)methyl)-4-(4-(2,3,4-trifluorophenyl)-1H-1,2,3-triazol-1-yl)tetrahydro-2H-pyran-3-ol], the IC50 in test [1] came out at 40 nM; in test [2], 180 nM.

As for `CO[C@@H]1[C@@H](n2cc(-c3ccc(Cl)c(F)c3F)nn2)[C@@H](O)[C@@H](CO)O[C@@H]1Cc1cn(C2(C)CC(F)C2)nn1` (stereo partly drawn) [Example 2.1.47.A, (2R,3R,4S,5R,6R)-4-(4-(4-chloro-2,3-difluorophenyl)-1H-1,2,3-triazol-1-yl)-6-((1-((1S,3S)-3-fluoro-1-methylcyclobutyl)-1H-1,2,3-triazol-4-yl)methyl)-2-(hydroxymethyl)-5-methoxytetrahydro-2H-pyran-3-ol], the IC50 in test [1] amounted to 30 nM; in test [2], 1370 nM.

For the compound `CO[C@@H]1[C@@H](n2cc(-c3ccc(Cl)c(F)c3F)nn2)[C@@H](O)[C@@H](CO)O[C@@H]1Cc1cn(C2(C(F)(F)F)CC2)nn1` [Ex 2.1.54., (2R,3R,4S,5R,6R)-4-(4-(4-Chloro-2,3-difluorophenyl)-1H-1,2,3-triazol-1-yl)-2-(hydroxymethyl)-5-methoxy-6-((1-(1-(trifluoromethyl)cyclopropyl)-1H-1,2,3-triazol-4-yl)methyl)tetrahydro-2H-pyran-3-ol], the IC50 was 30 nM in test [1] and 700 nM in test [2].

On to `CO[C@@H]1[C@@H](n2cc(-c3ccc(Cl)c(F)c3F)nn2)[C@@H](O)[C@@H](CO)O[C@@H]1Cn1cc(C2(C(F)F)CC2)nn1` [Ex 2.2.51.], for which the IC50 was 60 nM in test [1] and 2550 nM in test [2].

With `CO[C@@H]1[C@@H](n2cc(-c3ccc(F)c(F)c3F)nn2)[C@@H](O)[C@@H](CO)O[C@@H]1Cc1cn(C23CC(OC)(C2)C3)nn1` [Ex 3.1.29.], the IC50 came to 30 nM in test [1] and 760 nM in test [2].

For `CO[C@@H]1[C@@H](n2cc(-c3ccc(Cl)c(F)c3F)nn2)[C@@H](O)[C@@H](CO)O[C@@H]1Cc1cn(C2CC3(CC3)C2)nn1` [Ex 2.1.26.], the values for the half-inhibitory concentration (IC50) in test [1] and in test [2] were 100 nM and 7860 nM, respectively.

Compound `CO[C@@H]1[C@@H](n2cc(-c3ccc(Cl)c(F)c3F)nn2)[C@@H](O)[C@@H](CO)O[C@@H]1Cc1cn([C@@H]2CC[C@@H]2F)nn1` (relative stereo) [Example 2.1.88.A, (2R,3R,4S,5R,6R)-4-(4-(4-chloro-2,3-difluorophenyl)-1H-1,2,3-triazol-1-yl)-6-((1-((1R*,2S*)-2-fluorocyclobutyl)-1H-1,2,3-triazol-4-yl)methyl)-2-(hydroxymethyl)-5-methoxytetrahydro-2H-pyran-3-ol] registered an IC50 in test [2] of 1770 nM.

In turn, `CO[C@@H]1[C@@H](n2cc(-c3ccc(Cl)c(F)c3F)nn2)[C@@H](O)[C@@H](CO)O[C@@H]1Cc1cn(C2COCCC2(F)F)nn1` (stereo partly drawn) [Example 2.1.73.A, (2R,3R,4S,5R,6R)-4-(4-(4-chloro-2,3-difluorophenyl)-1H-1,2,3-triazol-1-yl)-6-((1-(4,4-difluorotetrahydro-2H-pyran-3-yl)-1H-1,2,3-triazol-4-yl)methyl)-2-(hydroxymethyl)-5-methoxytetrahydro-2H-pyran-3-ol] yielded a concentration for half-maximal inhibition (IC50) in test [2] of 1400 nM.

Compound `CO[C@@H]1[C@@H](n2cc(-c3ccc(Br)c(F)c3F)nn2)[C@@H](O)[C@@H](CO)O[C@@H]1Cn1cc(C2(O)CCC2)nn1` [Ex 4.2.31.] displayed an IC50 in test [2] of 2550 nM.

`CO[C@@H]1[C@@H](n2cc(-c3ccc(F)c(F)c3F)nn2)[C@@H](O)[C@@H](CO)O[C@@H]1Cc1cn(C23COC(C2)C3)nn1` [Example 3.1.44, (2R,3R,4S,5R,6R)-6-((1-(2-oxabicyclo[2.1.1]hexan-4-yl)-1H-1,2,3-triazol-4-yl)methyl)-2-(hydroxymethyl)-5-methoxy-4-(4-(2,3,4-trifluorophenyl)-1H-1,2,3-triazol-1-yl)tetrahydro-2H-pyran-3-ol]: the IC50 in test [1] amounted to 40 nM.

In the case of `CO[C@@H]1[C@@H](n2cc(-c3ccc(Cl)c(F)c3F)nn2)[C@@H](O)[C@@H](CO)O[C@@H]1Cc1cn([C@@H]2CC[C@H]2F)nn1` (relative stereo) [Example 2.1.88.C, (2R,3R,4S,5R,6R)-4-(4-(4-chloro-2,3-difluorophenyl)-1H-1,2,3-triazol-1-yl)-6-((1-((1R*,2R*)-2-fluorocyclobutyl)-1H-1,2,3-triazol-4-yl)methyl)-2-(hydroxymethyl)-5-methoxytetrahydro-2H-pyran-3-ol], the 50% inhibitory concentration (IC50) in test [2] came to 1680 nM. This lies in the single-digit micromolar range.

`CO[C@@H]1[C@@H](n2cc(-c3ccc(F)c(F)c3F)nn2)[C@@H](O)[C@@H](CO)O[C@@H]1Cc1cn(C23COC(C2)C3)nn1` [Ex 3.1.44.]: the IC50 in test [2] worked out at 800 nM.

Turning to `CO[C@@H]1[C@@H](n2cc(-c3ccc(Cl)c(F)c3F)nn2)[C@@H](O)[C@@H](CO)O[C@@H]1Cc1cn(C2(C(F)(F)F)CCOC2)nn1` (stereo partly drawn) [Example 2.1.77.A, (2R,3R,4S,5R,6R)-4-(4-(4-chloro-2,3-difluorophenyl)-1H-1,2,3-triazol-1-yl)-2-(hydroxymethyl)-5-methoxy-6-((1-(3-(trifluoromethyl)tetrahydrofuran-3-yl)-1H-1,2,3-triazol-4-yl)methyl)tetrahydro-2H-pyran-3-ol], the IC50 in test [2] turned out to be 760 nM.

For the compound `CO[C@@H]1[C@@H](n2cc(-c3ccc(F)c(F)c3F)nn2)[C@@H](O)[C@@H](CO)O[C@@H]1Cn1cc(C2(O)CCC2)nn1` [Ex 3.2.31.], in test [2], the half-maximal inhibitory concentration (IC50) was 730 nM.
